Results: the NIST ThermoML archive (doi:10.1021/je100423n)
± gives the expanded uncertainty stated by the source.

How the values were obtained:
[1] = molar heat capacity at constant pressure; conditions: 101.33 kPa, Crystal
[2] = Crystal; DTA
[3] = Molar enthalpy of transition or fusion; conditions: Crystal; DSC

Cn1cc[n+](CCCS(=O)(=O)[O-])c1 [3-(1-methyl-1H-imidazolium-3-yl)propane-1-sulfonate]
[1]
Conditions	molar heat capacity at constant pressure [J/K/mol]
79.8 K	86.51 ± 2.1
81.82 K	88.12 ± 2.2
83.72 K	89.95 ± 2.2
85.64 K	89.73 ± 2.2
87.56 K	93.2 ± 2.3
89.49 K	95.76 ± 2.3
91.4 K	97.65 ± 2.4
93.32 K	99.15 ± 2.4
95.24 K	102.59 ± 2.4
97.17 K	103.14 ± 2.5
99.12 K	102.97 ± 2.5
101.85 K	103.15 ± 2.5
104.55 K	104.71 ± 2.5
106.45 K	105.28 ± 2.5
108.39 K	105.7 ± 2.5
110.33 K	111.76 ± 2.6
112.29 K	111.65 ± 2.6
114.18 K	111.92 ± 2.6
116.13 K	115.43 ± 2.6
118.1 K	116.28 ± 2.7
120.05 K	114.78 ± 2.6
121.97 K	115.61 ± 2.6
123.88 K	119.92 ± 2.7
125.82 K	122.24 ± 2.8
127.79 K	123.43 ± 2.8
129.74 K	125.12 ± 2.8
131.67 K	124.91 ± 2.8
133.59 K	127.13 ± 2.8
135.53 K	131.14 ± 2.9
137.52 K	130.24 ± 2.9
139.48 K	129.74 ± 2.9
141.43 K	131.92 ± 2.9
143.37 K	134.51 ± 3
145.33 K	134.71 ± 3
147.34 K	135.23 ± 3
149.32 K	136.3 ± 3
151.86 K	137.15 ± 3
154.34 K	136.69 ± 3
156.25 K	139.22 ± 3
158.24 K	141.2 ± 3.1
160.2 K	143.21 ± 3.1
162.16 K	143.46 ± 3.1
164.1 K	142.79 ± 3.1
166.03 K	143.55 ± 3.1
167.95 K	145.47 ± 3.1
169.86 K	147.4 ± 3.2
171.84 K	148.97 ± 3.2
173.85 K	149.72 ± 3.2
175.86 K	149.26 ± 3.2
177.86 K	149.24 ± 3.2
179.85 K	152.16 ± 3.2
181.84 K	150.39 ± 3.2
183.8 K	154.14 ± 3.3
185.77 K	156.95 ± 3.3
187.72 K	158.74 ± 3.3
189.66 K	159.79 ± 3.4
191.59 K	160.39 ± 3.4
193.51 K	162.15 ± 3.4
195.43 K	163.86 ± 3.4
197.4 K	164.54 ± 3.4
199.41 K	165.47 ± 3.5
201.87 K	167.03 ± 3.5
204.26 K	168.03 ± 3.5
206.21 K	169.73 ± 3.5
208.23 K	170.72 ± 3.5
210.24 K	171.01 ± 3.5
212.24 K	172.7 ± 3.6
214.24 K	173.59 ± 3.6
216.23 K	174.98 ± 3.6
218.22 K	175.65 ± 3.6
220.2 K	176.48 ± 3.6
222.16 K	177.33 ± 3.6
224.13 K	178.37 ± 3.6
226.09 K	179.05 ± 3.7
228.04 K	180.76 ± 3.7
229.98 K	181.37 ± 3.7
231.89 K	182.01 ± 3.7
233.91 K	183.89 ± 3.7
235.92 K	184.74 ± 3.8
237.85 K	185.76 ± 3.8
239.79 K	186.01 ± 3.8
242.05 K	187.95 ± 3.8
244.34 K	187.83 ± 3.8
246.29 K	188.35 ± 3.8
248.25 K	190.3 ± 3.8
250.19 K	193.13 ± 3.9
252.14 K	194.47 ± 3.9
254.07 K	195.68 ± 3.9
255.99 K	196.3 ± 3.9
257.92 K	197.35 ± 4
259.83 K	198.68 ± 4
261.74 K	199.57 ± 4
263.64 K	200.05 ± 4
265.55 K	201.61 ± 4
267.43 K	202.34 ± 4
269.32 K	203.12 ± 4
271.3 K	205.52 ± 4.1
273.27 K	206.92 ± 4.1
275.24 K	208.19 ± 4.1
277.3 K	209.38 ± 4.2
279.36 K	210.92 ± 4.2
281.42 K	212.37 ± 4.2
283.48 K	214.25 ± 4.2
285.52 K	216.3 ± 4.3
287.56 K	218.37 ± 4.3
289.55 K	220.99 ± 4.3
293.53 K	222.83 ± 4.4
295.51 K	223.55 ± 4.4
297.5 K	224.52 ± 4.4
299.48 K	225.32 ± 4.4
301.46 K	225.86 ± 4.4
303.43 K	227.02 ± 4.4
305.4 K	226.03 ± 4.4
307.36 K	230.37 ± 4.5
309.31 K	235.18 ± 4.6
311.27 K	235.45 ± 4.6
313.22 K	236.03 ± 4.6
315.16 K	234.76 ± 4.6
317.1 K	236.03 ± 4.6
319.02 K	238.01 ± 4.6
320.95 K	239.81 ± 4.6
322.87 K	240.52 ± 4.7
324.78 K	243.51 ± 4.7
326.69 K	246.23 ± 4.7
328.59 K	244.95 ± 4.7
330.48 K	246.48 ± 4.7
332.37 K	249.83 ± 4.8
334.35 K	249.15 ± 4.8
336.32 K	251.01 ± 4.8
338.27 K	250.4 ± 4.8
340.28 K	254.4 ± 4.9
342.23 K	256.8 ± 4.9
344.09 K	255.82 ± 4.9
345.86 K	260.16 ± 5
347.69 K	257.32 ± 4.9
349.6 K	262.66 ± 5
351.56 K	261.97 ± 5
353.54 K	259.52 ± 5
355.49 K	263.89 ± 5
357.41 K	266.15 ± 5.1
359.38 K	268.15 ± 5.1
361.39 K	270.9 ± 5.1
363.37 K	269.56 ± 5.1
365.32 K	267.19 ± 5.1
367.26 K	270.08 ± 5.1
369.16 K	275.79 ± 5.2
371.1 K	275.4 ± 5.2
373.06 K	275.42 ± 5.2
375 K	277.14 ± 5.2
376.96 K	279.35 ± 5.3
378.97 K	280.38 ± 5.3
380.96 K	281.24 ± 5.3
383.24 K	283.27 ± 5.3
385.55 K	285.76 ± 5.4
387.47 K	284.6 ± 5.3
389.43 K	285.05 ± 5.4
391.54 K	286.7 ± 5.4
393.53 K	288.42 ± 5.4
395.46 K	290.84 ± 5.5

Conditions	Molar enthalpy of transition or fusion [kcal/mol]	Normal melting temperature [°C]
[2]	–	217.30 ± 0.5
[3]	6.78 ± 0.203	–
